Assay results as given in US20240299378A1, “EMULSION FOR USE IN THE TREATMENT OF ROSACEA” (EXINOV, priority 2021, published 2024).

System: cell proliferation in the local lymph nodes
Assay: mouse Local Lymph Node Assay (LLNA), 3HTdR incorporation
Details: topical on ears days 1-3; Em-A 100% (w/v) in AOO; HCA 25% (w/v) in AOO
Excerpt: Preliminary tests: Based on the results of the Preliminary Compatibility Test, the tested emulsions characteristics (e.g., when the emulsion is a dense cream), its use and following the Organisation for Economic Co-operation and Development (OECD) Guidelines, the best vehicle for the tested emulsions was considered as AOO (acetone:olive oil 4:1 (v/v) mixture). The tested emulsions at 100% (w/v) were suitable for the test using AOO as vehicle. […] Based on the observations recorded in this test, the 100% (w/v) in AOO dose was selected as top dose for the main test. […] Tested emulsions were applied on the dorsal surface of ears of experimental animals (25 μL/ear using positive displacement pipette) for three consecutive days (days 1, 2 and 3). There was no treatment on days 4, 5 and 6. The cell proliferation in the local lymph nodes was assessed by measuring the incorporation of tritiated methyl thymidine (3HTdR) and the values obtained were used to calculate stimulation indices (SI) in comparison with the control group.

CCCCCCC(C=O)=Cc1ccccc1 [HCA, α-hexylcinnamaldehyde]
stimulation index (SI): 12.7
